From patent US12059416B2, “Combinations of a H3 antagonist and a noradrenaline reuptake inhibitor, and the therapeutical uses thereof” (BIOPROJET, priority 2018, dated 2024)
Counter-ions that a name gives are not always drawn.

Legend:
male Wistar rats = experiment: Effect on sleep/wake (EEG telemetry) in rats; format: in vivo, rat; settings: oral gavage, over 12 hours
Protocol: Effects on sleep/wake parameters were investigated in male Wistar rats. Briefly, rats were stereotaxically implanted with cortical electrodes for electroencephalogram (EEG) recording using a telemetric system (Data Sciences Int., Saint Paul, MN, USA) for the acquisition, transfer and storage of motor activity and EEG signals. EEG signals were analysed according to a procedure adapted from the algorithm proposed by R. P. Louis et al. (J. Neurosci. Methods, 2004, 133, 71-80) and the analysis of vigilance stages according to H. Kleinlogel (Neuropsychobiol. 1990-91, 23, 197-204) after a fast Fourier transformation of 8-second duration EEG epochs. This allows the determination for each epoch of its vigilance stage (i.e. active wakefulness, quiet wakefulness, light or deep slow wave sleeps and REM sleep also named paradoxical sleep). Rats received orally (gavage) vehicle, drug or drug combination around 30 minutes before the light onset. Then, EEG signals were continuously recorded and further integrated over the 12-hour diurnal phase.
Effects on sleep/wake recorded in rats of drugs alone or combined are presented in the FIG. 1 (Pitolisant/duloxetine), FIG. 2 (BP1.3656B/duloxetine), FIG. 3 (pitolisant/reboxetine) and FIG. 4 (pitolisant/atomoxetine): […]

[1] = system: noradrenaline release in the prefrontal cortex; experiment: Noradrenaline release in the prefrontal cortex, in vivo microdialysis; settings: rat prefrontal cortex, oral gavage, maximal increase recorded over 150 min post dosing, mean ± SEM
Excerpt: Effects on noradrenaline release in the prefrontal cortex were investigated in vivo by microdialysis in vigil male Wistar rats as described by AD Medhurst et al. (J. Pharmacol. Exp. Ther. 2007, 321, 1032-1045) and G. Flik et al. (J. Mol. Neurosci. 2015, 56, 320-328). Briefly, anaesthetized rats were implanted with a guide cannulae for sampling in the prefrontal cortex. After at least one week of recovery post-surgery, the microdialysis probe was inserted in the guide cannulae and perfused continuously with artificial cerebrospinal fluid (CSF). The rat was habituated to the microdialysis cage for ˜3 hours. Then, rats received orally (gavage) vehicle, drug or drug combination. CSF samples collected every 30 minutes were analysed for their noradrenaline content by HPLC coupled to a electrochemical detection. Noradrenaline sample levels were expressed in percentage of basal noradrenaline release recorded over 1.5 hour before vehicle or drug treatment.

| Compound | decrease in the REM sleep (male Wistar rats) | Maximal increase (% of basal noradrenaline release) [1] |
| --- | --- | --- |
| CNCC[C@H](Oc1cccc2ccccc12)c1cccs1 [duloxetine] | −23% | +113 ± 31% |
| Clc1ccc(CCCOCCCN2CCCCC2)cc1 [pitolisant, monohydrochloride salt of 1-{3-[3-(4-chlorophenyl)propoxy]propyl}piperidine] | does not have any significant effect | +148 ± 49% |
